Like-named read-outs stand apart in the source and are kept apart here. Each block holds one compound with its values, some of them ahead of it.
Key:
[1] = published pharmacokinetic studies; cited from earlier work
LS1034 cells [2] = experiment: CellTiter-Glo cellular viability assay, killing of LS1034 cells; assay type: cell-based, human; conditions: for IC50: Homo sapiens, LS-1034
Protocol: (§1) Cell viability was assayed using a modified manufacturer's protocol for CellTiter-Glo® (Promega #G7573). Cells were seeded at a density of 2000 cells per well in a 96 well black, clear bottom plate (Corning #89091-012) in 100 uL total media per well. The following day different concentrations of compounds at various doses were printed in triplicate in a random well format using the Tecan D300e Digital Dispenser. After 120H, 60 μL of a 1:3 solution of CellTiterGlo reagent in 1×PBS (Corning #01018002) was added per well and allowed to incubate at RT for 10 mins. Luminescence was measured with an integration time of 0.1 s using Envision Microplates Reader (PERKIN ELMER #2105-0010). Biological replicates were averaged and normalized to vehicle control. Dose curves were generated using Graphpad Prism.

LS1034 cells [3] = experiment: Compound cell permeability assay (LC-MS); conditions: 3 hour incubation, 20 μM, with or without ABCB1 knockout or elacridar
Protocol: (§2) Compound was incubated in naïve cell media (no cell control, or NCC) or in the presence of cells at 1 million cells/mL. The incubation was carried out in a 37° C. with 5% CO2 cell incubator with gentle plate shaking for 3 hours. Following the incubation, the NCC samples were placed on the bench until final analysis. Cell samples were centrifuged at 500×g for 5 minutes. The supernatant was removed, and the cells were washed twice with cold PBS. Cells were again centrifuged at 500×g for 5 minutes, the supernatant was removed/discarded, and cells were resuspended in 130 pL water (Honeywell, catalog #33015-1L). The entire volume was then transferred into a Covaris microTUBE plate (Covaris, catalog #220078) and sonicated on a Covaris LE220 focused-ultrasonicator. Samples were transferred to a 96wp and centrifuged at 3000×g for 15 min at 20° C. The supernatant was transferred to a new 96wp. For both the NCC and cell samples, 5 pL was transferred to a 96wp. To each sample was added 45 pL cell media, 50 pL water, and 50 pL acetonitrile containing internal standard. […]
(§3) Samples were analyzed on a UPLC-MS/MS system consisting of a Waters Acquity I-Class FTN and AB Sciex 4500 Triple Quad mass spectrometer with compounds being detected by positive mode MRM detection. […] Sample concentrations were determined using a standard curve and dilution quality control samples prepared in a surrogate matrix. […]

cyclooygenase = conditions: in vitro; cited from earlier work
MDR1 [4] = biological target: T1, MDR1 (Homo sapiens, UniProt P08183); experiment: P-Glycoprotein transporter cell based antagonism assay (calcein AM assay); conditions: read-out: IC50 in calcein AM assay; relies upon cell-permeability of compounds
T1 sequence (P08183 whole entry): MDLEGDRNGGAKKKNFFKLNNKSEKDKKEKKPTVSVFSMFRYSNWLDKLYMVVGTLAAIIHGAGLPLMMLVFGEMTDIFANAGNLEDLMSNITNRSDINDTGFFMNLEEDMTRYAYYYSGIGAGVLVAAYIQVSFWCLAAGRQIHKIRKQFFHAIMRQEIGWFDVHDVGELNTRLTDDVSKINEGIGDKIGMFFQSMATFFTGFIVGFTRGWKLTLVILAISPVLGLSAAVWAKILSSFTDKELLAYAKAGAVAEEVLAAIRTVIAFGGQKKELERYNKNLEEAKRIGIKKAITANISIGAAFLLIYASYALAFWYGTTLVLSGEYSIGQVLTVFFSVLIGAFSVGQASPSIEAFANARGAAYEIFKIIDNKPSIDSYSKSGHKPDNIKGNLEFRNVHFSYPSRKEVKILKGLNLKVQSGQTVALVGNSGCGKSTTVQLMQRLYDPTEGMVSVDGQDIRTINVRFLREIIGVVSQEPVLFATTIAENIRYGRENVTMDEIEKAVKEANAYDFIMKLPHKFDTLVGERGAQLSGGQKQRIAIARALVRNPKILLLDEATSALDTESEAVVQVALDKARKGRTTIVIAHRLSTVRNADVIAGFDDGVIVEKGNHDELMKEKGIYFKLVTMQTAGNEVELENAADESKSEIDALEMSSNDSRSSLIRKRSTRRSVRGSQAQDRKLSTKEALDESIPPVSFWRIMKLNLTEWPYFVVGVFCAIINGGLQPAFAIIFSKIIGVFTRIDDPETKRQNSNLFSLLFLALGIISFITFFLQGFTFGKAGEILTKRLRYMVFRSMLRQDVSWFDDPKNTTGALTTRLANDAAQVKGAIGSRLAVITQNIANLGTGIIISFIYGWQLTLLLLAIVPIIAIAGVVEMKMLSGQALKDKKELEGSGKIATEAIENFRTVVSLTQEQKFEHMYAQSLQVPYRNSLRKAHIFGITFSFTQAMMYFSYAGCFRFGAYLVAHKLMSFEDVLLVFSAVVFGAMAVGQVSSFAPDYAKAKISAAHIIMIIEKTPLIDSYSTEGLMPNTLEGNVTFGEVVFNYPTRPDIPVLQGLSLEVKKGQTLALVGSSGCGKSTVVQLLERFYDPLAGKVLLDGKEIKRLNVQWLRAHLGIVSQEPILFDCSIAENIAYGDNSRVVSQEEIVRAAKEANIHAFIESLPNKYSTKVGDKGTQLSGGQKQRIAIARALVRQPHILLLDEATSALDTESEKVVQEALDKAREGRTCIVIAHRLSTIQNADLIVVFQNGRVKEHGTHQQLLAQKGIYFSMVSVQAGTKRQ

[5] = test system: barcode-tagged neoplastic cell line populations sorted by ABCB1 expression; experiment: PRISM multiplexed cellular viability screen, cell killing plotted against ABCB1 expression; conditions: for Phenocopy of tepoxalin activity in PRISM: tested at the same dose
Protocol: PRISM cell line barcoding, pooling, and screening was performed as previously described with several improvements to the original method (5). First, the lentiviral vector was modified to encode the unique barcode identifier at the end of the puromycin resistance gene. This enables barcodes to be detected using a variant of the mRNA capture and Luminex detection method developed for the L1000 gene expression assay (6). Second, a set of ten inert barcodes were spiked-in to each well of each plate after cell lysis to control for variation in PCR amplification as detailed below.
Cell viability was calculated as the ratio of nMFI to the median of the nMFI from the DMSO-treated negative controls for each cell line on each plate. Batch effects produced from variable detection and assay conditions were then removed using ComBat (8). The final viability values were calculated as the median of the batch-corrected cell viabilities from biological replicates for each cell line, compound and dose.
Measures of dose response were obtained by fitting 3-parameter logistic curves to viability values for each compound and cell line using the R package ‘drc’. Following the practice of Smirnov and Safikhani (9), viability was truncated at 1.0 and fit as a function of drug concentration according to:
High-throughput “next gen” sequencing performed upon arrayed cell populations allowed for well-by-well tracking of cell viability over time, in the presence and absence of library compounds, via barcode enumeration and deconvolution of treated and control cell line populations. Using this approach, cell viability dose-response curves were generated for each compound of the drug repurposing library, across all targeted cell lines present in the barcode-tagged neoplastic cell line “PRISM” populations.
By sorting the “PRISM” population cell lines by their respective relative levels of ABCB1 expression (as assessed by RNAseq), the cell killing profile of each drug repurposing library compound tested could be plotted against relative levels of ABCB1 expression, thereby obtaining a cell killing profile that served as a proxy for dose-response of the library compound across progressively increasing levels of ABCB1 expression.

Kuramochi-ABCB1 cells = experiment: Killing of native Kuramochi cells versus Kuramochi cells overexpressing ABCB1 (Kuramochi-ABCB1); assay type: cell-based, human; conditions: for Change of compound-mediated killing with overexpressed ABCB1: Kuramochi-ABCB1 versus native Kuramochi cells
Protocol: Cell viability was assayed using a modified manufacturer's protocol for CellTiter-Glo® (Promega #G7573). […] The following day different concentrations of compounds at various doses were printed in triplicate in a random well format using the Tecan D300e Digital Dispenser. […] Biological replicates were averaged and normalized to vehicle control. Dose curves were generated using Graphpad Prism.
Next, the consequence of ectopic ABCB1 overexpression in cells resistant to tepoxalin was evaluated.

REC1 cells = experiment: Expanded cell line viability comparison, killing of REC1 cells; assay type: cell-based, human; conditions: REC1 versus LS1034
Protocol: as §1

[6] = rat model, compared with naproxen; cited from earlier work
MDR1 [7] = biological target: T1, MDR1; experiment: cell-based
MDR1 [8] = biological target: T1, MDR1; experiment: cell-based; remark: listed apart in the source
[9] = test system: LS1034 cells administered sg ABCB1-2; experiment: Viability of LS1034 cells given control sgRNA (sg GFP) or ABCB1 knockdown sgRNA (sg ABCB1-2); assay type: cell-based, human; conditions: sg ABCB1-2 compared to control sgRNA sg GFP
Protocol: A mixture of 3E6 cells, virus, and media with 4 μg/mL polybrene (Millipore) at a total volume of 2 mL was plated per well of a 12 well plate. Cells were centrifuged at 2000 RPM for 2 hours at 30° C. After removal from incubator, 2 mL of fresh media was added to each well and cells were allowed to incubate at 37° C. overnight. The following day cells were selected for with puromycin for 3-10 days, or until the non-infected control cell were completely non-viable.
as §1, with “Prism. […]” for “Prism.”

LS1034 cells [10] = test system: LS1034 cells
Protocol: as §2, §3

[11] = PRISM population, ABCB1 expression by RNAseq
[12] = read-out: IC50 value (absolute) in killing LS1034 cells

Cell permeability (LS1034 cells [3]): cell impermeability
IC50 (MDR1 [4]): > 100 µM
Compound: COc1ccc(-n2nc(CCC(=O)O)cc2-c2ccc(Cl)cc2)cc1 [RWJ20142]
Maximal plasma concentration relative to parent compound [1]: higher maximal plasma concentration than the parent compound
Viability of treated LS1034 cells (LS1034 cells [2]; LS1034 cells): no decrease in viability
Activity against cyclooxygenase (cyclooygenase): active

Compound: CC(C)C[C@H](NC(=O)[C@H](CCc1ccccc1)NC(=O)CN1CCOCC1)C(=O)N[C@@H](Cc1ccccc1)C(=O)N[C@@H](CC(C)C)C(=O)[C@@]1(C)CO1 [carfilzomib, Carfilzomib]
Cell killing profile against relative levels of ABCB1 expression [5, 11]: robust killing of cells that expressed low levels of ABCB1

Compound: COc1cccc2c1C(=O)c1c(O)c3c(c(O)c1C2=O)C[C@@](O)(C(C)=O)C[C@@H]3O[C@H]1C[C@H](N)[C@H](O)[C@H](C)O1 [daunorubicin, Daunorubicin]
Cell killing profile against relative levels of ABCB1 expression [5]: robust killing of cells that expressed low levels of ABCB1

Compound: CC(=O)O[C@@]12CO[C@@H]1C[C@H](O)[C@@]1(C)C(=O)[C@H](O)C3=C(C)[C@@H](OC(=O)[C@H](O)[C@@H](NC(=O)OC(C)(C)C)c4ccccc4)C[C@@](O)([C@@H](OC(=O)c4ccccc4)[C@H]21)C3(C)C [docetaxel, Docetaxel]
Cell killing profile against relative levels of ABCB1 expression [5, 11]: robust killing of cells that expressed low levels of ABCB1

Compound: O=C(C(c1ccccc1)c1ccccc1)N1CCN(CC(O)COc2cccc3ncccc23)CC1 (stereo not drawn) [dofequidar]
IC50 (LS1034 cells [2]; [12]): > 10 µM

Compound: COc1cccc2c1C(=O)c1c(O)c3c(c(O)c1C2=O)C[C@@](O)(C(=O)CO)C[C@@H]3O[C@H]1C[C@H](N)[C@H](O)[C@H](C)O1 [doxorubicin, Doxorubicin]
Change of compound-mediated killing with overexpressed ABCB1 (Kuramochi-ABCB1 cells; 144 hours): dampened
Cell killing profile against relative levels of ABCB1 expression [5, 11]: robust killing of cells that expressed low levels of ABCB1

Compound: COc1cc2c(cc1OC)CN(CCc1ccc(NC(=O)c3cccc4c(=O)c5cccc(OC)c5[nH]c34)cc1)CC2 [elacridar]
IC50 (LS1034 cells [2]; [12]): 1.9 µM
Cell killing by the compound alone in native and ABCB1-overexpressing Kuramochi cells (Kuramochi-ABCB1 cells; 144 hours): only modest cell killing
Phenocopy of tepoxalin activity in PRISM [5]: did not phenocopy tepoxalin
Killing of REC1 cells compared with LS1034 cells (IC50 comparison) (REC1 cells): comparable IC50 values for REC1 killing and LS1034 killing

Compound: COc1cccc2c1C(=O)c1c(O)c3c(c(O)c1C2=O)C[C@@](O)(C(=O)CO)C[C@@H]3O[C@H]1C[C@H](N)[C@@H](O)[C@H](C)O1 [epirubicin, Epirubicin]
Cell killing profile against relative levels of ABCB1 expression [5, 11]: robust killing of cells that expressed low levels of ABCB1

Compound: CC(=O)[C@]1(O)Cc2c(O)c3c(c(O)c2[C@@H](O[C@H]2C[C@H](N)[C@H](O)[C@H](C)O2)C1)C(=O)c1ccccc1C3=O [idarubicin, Idarubicin]
Cell killing profile against relative levels of ABCB1 expression [5, 11]: robust killing of cells that expressed low levels of ABCB1

Compound: C/C(=C\c1csc(C)n1)[C@@H]1C[C@@H]2O[C@]2(C)CCC[C@H](C)[C@H](O)[C@@H](C)C(=O)C(C)(C)[C@@H](O)CC(=O)N1 [ixabepilone, Ixabepilone]
Cell killing profile against relative levels of ABCB1 expression [5]: robust killing of cells that expressed low levels of ABCB1

Compound: CC(=O)O[C@H]1C(=O)[C@@]2(C)[C@H]([C@H](OC(=O)c3ccccc3)[C@]3(O)C[C@H](OC(=O)[C@H](O)[C@@H](NC(=O)c4ccccc4)c4ccccc4)C(C)=C1C3(C)C)[C@]1(OC(C)=O)CO[C@@H]1C[C@@H]2O [paclitaxel, Paclitaxel]
IC50 (LS1034 cells [2]; read-out: IC50 in killing LS1034 cells): 0.165 µM
Change of compound-mediated killing with overexpressed ABCB1 (Kuramochi-ABCB1 cells; 144 hours): dampened
Killing of REC1 cells compared with LS1034 cells (IC50 comparison) (REC1 cells): more robust killing of REC1 cells than LS1034 cells

Compound: COc1cc2c(cc1OC)CN(CCc1ccc(NC(=O)c3cc(OC)c(OC)cc3NC(=O)c3cnc4ccccc4c3)cc1)CC2 [tariquidar]
IC50 (LS1034 cells [2]; [12]): > 10 µM
Phenocopy of tepoxalin activity in PRISM [5]: did not phenocopy tepoxalin

IC50 (MDR1 [7]): 32 µM
IC50 (MDR1 [8]): 12 µM
Cell permeability (LS1034 cells [10]): readily cell permeable
Compound: COc1ccc(-n2nc(CCC(=O)N(C)O)cc2-c2ccc(Cl)cc2)cc1 [tepoxalin]
Gastric ulcers at an effective dose [6]: fewer gastric ulcers in a rat model than naproxen
IC50 (LS1034 cells [2]; [12]): 7.8 µM
Effect of elacridar co-treatment on killing of LS1034 cells (LS1034 cells [2]; LS1034, 120H, co-treatment with the MDR1 inhibitor elacridar across dose ranges): rescued
Change of compound-mediated killing with overexpressed ABCB1 (Kuramochi-ABCB1 cells; 144 hours): enhanced
Dose-response cell killing curves in combination with 2 μM elacridar, across ABCB1 expression/overexpression (Kuramochi-ABCB1 cells; combination with 2 μM elacridar, Kuramochi versus Kuramochi-ABCB1, 144 hours): impervious (did not shift)
Cell killing profile against relative levels of ABCB1 expression [5, 11]: progressively enhanced killing of cell lines in positive correlation with increasing levels of ABCB1
Effect of sg ABCB1-2 on compound-mediated killing of LS1034 cells [9]: effectively blocked
Killing of REC1 cells compared with LS1034 cells (IC50 comparison) (REC1 cells): more robust killing of REC1 cells than LS1034 cells

Compound: C/C=C/C[C@@H](C)C(=O)[C@H]1C(=O)N[C@@H](C(C)C)C(=O)N(C)CC(=O)N(C)[C@@H](CC(C)C)C(=O)N[C@@H](C(C)C)C(=O)N(C)[C@@H](CC(C)C)C(=O)N[C@@H](C)C(=O)N[C@H](C)C(=O)N(C)[C@@H](CC(C)C)C(=O)N(C)[C@@H](CC(C)C)C(=O)N(C)[C@@H](C(C)C)C(=O)N1C [valspodar]
IC50 (LS1034 cells [2]; [12]): > 10 µM

Compound: CC[C@]1(O)C[C@@H]2C[N@@](CCc3c([nH]c4ccccc34)[C@@](C(=O)OC)(c3cc4c(cc3OC)N(C=O)[C@H]3[C@@](O)(C(=O)OC)[C@H](OC(C)=O)[C@]5(CC)C=CCN6CC[C@]43[C@@H]65)C2)C1 [vincristine, Vincristine]
Cell killing profile against relative levels of ABCB1 expression [5, 11]: robust killing of cells that expressed low levels of ABCB1

Compound: O[C@@H](COc1cccc2ncccc12)CN1CCN([C@@H]2c3ccccc3[C@@H]3[C@H](c4ccccc42)C3(F)F)CC1 [zosuquidar]
IC50 (LS1034 cells [2]; [12]): > 10 µM

Compound: Romidepsin
Cell killing profile against relative levels of ABCB1 expression [5]: robust killing of cells that expressed low levels of ABCB1

Compound: Vinorelbine
Cell killing profile against relative levels of ABCB1 expression [5, 11]: robust killing of cells that expressed low levels of ABCB1

— patent US12313632B2, “Tepoxalin targeting of ABCB1 overexpressing cancers” (THE BROAD INSTITUTE, INC., priority 2018, dated 2025)
